# Experimental data as given in ChEMBL document CHEMBL5500395 (J Med Chem, 2024).
# Experiment: Solubility of compound in PBS at pH 7.4 at 100 uM incubated for 120 mins by LC-MS/MS analysis
# Format: physicochemical
# Conditions: buffer, pH 7.4, 2 h
row,Structure (SMILES),solubility
1,N[C@H]1C[C@H](OC(=O)[C@@H]2[C@H]3C[C@H]4c5[nH]c6ccccc6c5CCN4C[C@@H]3CC[C@@H]2O)C1,Soluble
2,O=C(OC[C@H]1CCN1)[C@@H]1[C@H]2C[C@H]3c4[nH]c5ccccc5c4CCN3C[C@@H]2CC[C@@H]1O,Soluble
3,O=C(OC[C@H]1CCNC1)[C@@H]1[C@H]2C[C@H]3c4[nH]c5ccccc5c4CCN3C[C@@H]2CC[C@@H]1O,Soluble
4,CC(C)OC(=O)[C@@H]1[C@H]2C[C@H]3c4[nH]c5ccccc5c4CCN3C[C@@H]2CC[C@@H]1O,Soluble
5,O=C(OC1COC1)[C@@H]1[C@H]2C[C@H]3c4[nH]c5ccccc5c4CCN3C[C@@H]2CC[C@@H]1O,Soluble
6,N[C@H]1C[C@@H](OC(=O)[C@@H]2[C@H]3C[C@H]4c5[nH]c6ccccc6c5CCN4C[C@@H]3CC[C@@H]2O)C1,Soluble
7,O=C(N[C@H]1CCNC1)[C@@H]1[C@H]2C[C@H]3c4[nH]c5ccccc5c4CCN3C[C@@H]2CC[C@@H]1O,Soluble
8,CNCCOC(=O)[C@@H]1[C@H]2C[C@H]3c4[nH]c5ccccc5c4CCN3C[C@@H]2CC[C@@H]1O,Soluble
9,O=C(OC1CCNCC1)[C@@H]1[C@H]2C[C@H]3c4[nH]c5ccccc5c4CCN3C[C@@H]2CC[C@@H]1O,Soluble
10,O=C(OC[C@H]1CCCN1)[C@@H]1[C@H]2C[C@H]3c4[nH]c5ccccc5c4CCN3C[C@@H]2CC[C@@H]1O,Soluble
11,O=C(O[C@H]1CCOC1)[C@@H]1[C@H]2C[C@H]3c4[nH]c5ccccc5c4CCN3C[C@@H]2CC[C@@H]1O,Soluble
12,CN1CC[C@H](OC(=O)[C@@H]2[C@H]3C[C@H]4c5[nH]c6ccccc6c5CCN4C[C@@H]3CC[C@@H]2O)C1,Soluble
13,O=C(OC[C@@H]1CCNC1)[C@@H]1[C@H]2C[C@H]3c4[nH]c5ccccc5c4CCN3C[C@@H]2CC[C@@H]1O,Soluble
14,O=C(OC1CNC1)[C@@H]1[C@H]2C[C@H]3c4[nH]c5ccccc5c4CCN3C[C@@H]2CC[C@@H]1O,Soluble
15,CCOC(=O)[C@@H]1[C@H]2C[C@H]3c4[nH]c5ccccc5c4CCN3C[C@@H]2CC[C@@H]1O,Soluble
16,O=C(O[C@@H]1CCNC1)[C@@H]1[C@H]2C[C@H]3c4[nH]c5ccccc5c4CCN3C[C@@H]2CC[C@@H]1O,Soluble
17,O=C(O[C@H]1CCNC1)[C@@H]1[C@H]2C[C@H]3c4[nH]c5ccccc5c4CCN3C[C@@H]2CC[C@@H]1O,Soluble
